Key:
SD rats = conditions: for After the infusion is stopped: Righting reflex recovery time / Recovery time after stopping infusion: after 1 hour continuous infusion at 2 times the MIR; for After the infusion is stopped: Righting reflex recovery time / Recovery time after stopping infusion / Sedation onset time: SD rats; for Sedation onset time: continuous tail vein infusion at 2 times the MIR
Experimental: Experimental Methods: Adult male SD rats with body weight ranging from 250 g to 350 g were selected for continuous infusion test.
Evaluation indexes: the time from the beginning of continuous infusion to the […] of sedation in rats; the time from the cessation of infusion to the restoration of the forepaw turning reflex after 1 hour of continuous infusion; the time from the cessation of infusion to the complete restoration of rats after 1 hour of continuous infusion.

Sprague-Dawley rats [1] = type: in vivo; conditions: tail vein
Sprague-Dawley rats [2] = test: Pharmacological effect and adverse reactions under the equivalent dose (2ED50), Group D compounds; type: in vivo; conditions: for Righting reflex duration / Sedation duration / Onset time: 2ED50, tail vein, rats, n=8; for Adverse reaction: Convulsions / Adverse reaction: Cough, broken-winded / Adverse reaction: Euphoria / Adverse reaction: Four limbs rigidity / Adverse reaction: Red urine / Adverse reaction: Slower breathing, Tetany convulsion / Adverse reaction: Systemic stiffness, Convulsions, Opisthotonus / Adverse reaction: Tongue stretching / Adverse reaction: Tremor: equivalent dose (2 × ED50), number of rats of n = 8
Source text: Evaluation index: onset time: from the completion of drug injection to the disappearance of forepaw righting reflex in rats; Duration of anesthesia: the time from the disappearance of rat forepaw righting reflex to the recovery of rat forepaw righting reflex; Recovery time of anesthesia: the time from the […] to complete recovery;

Sprague-Dawley rats [3] = test: animal or person; type: in vivo; conditions: rats; for ED50: Rattus norvegicus, LORR, up and down method, tail vein, class symbols, read-out: ED50
Source text: Evaluating indicator: The end point of anesthesia: the disappearance of forepaw righting reflex (lorr) was used as the end point of anesthesia; General anesthesia effect: the disappearance of forepaw righting reflex in rats lasting for 30 seconds is taken as the index of general anesthesia effect; Anesthesia recovery index: the recovery of rat forepaw righting reflex was used as the index of anesthesia recovery.

[4] = continuous infusion 2 x MIR 1 hour, rats affected/rats

Compound | After the infusion is stopped: Righting reflex recovery time (SD rats) [min] | Recovery time after stopping infusion (SD rats) [min] | Types and incidence of adverse reactions: Red urine (SD rats; [4]) | Types and incidence of adverse reactions: Tremor (SD rats; [4]) | Sedation onset time (SD rats) [min] | Minimal lethal dose (Sprague-Dawley rats [1]) [mg/kg] | Righting reflex duration (Sprague-Dawley rats [2]) [min] | Sedation duration (Sprague-Dawley rats [2]) [min] | Adverse reaction: Convulsions (Sprague-Dawley rats [2]) | Adverse reaction: Cough, broken-winded (Sprague-Dawley rats [2]) | Adverse reaction: Euphoria (Sprague-Dawley rats [2]) | Adverse reaction: Four limbs rigidity (Sprague-Dawley rats [2]) | Adverse reaction: Red urine (Sprague-Dawley rats [2]) | Adverse reaction: Slower breathing, Tetany convulsion (Sprague-Dawley rats [2]) | Adverse reaction: Systemic stiffness, Convulsions, Opisthotonus (Sprague-Dawley rats [2]) | Adverse reaction: Tongue stretching (Sprague-Dawley rats [2]) | Adverse reaction: Tremor (Sprague-Dawley rats [2]) | ED50 (Sprague-Dawley rats [3]) [mg/kg] | Approximate therapeutic index (Sprague-Dawley rats [3]) | Onset time (Sprague-Dawley rats [2]; unit min) [min] | also measured
COC(OC)(OC)C(=O)c1cncn1[C@H](C)c1ccccc1 [Compound D77] | 12 to 16 | 20 to 30 | Red urine(6/6), Tongue | stretching(3/6), Tremor(3/6) | <5 | >1.4 | 1.43 ± 0.22 | 3.68 ± 0.56 | 0 | 0 | 0 | 0 | 8 | 0 | 8 | 1 | 0 | 0.04 to 0.5 | >21.0 |  | Types and incidence of adverse reactions: Tongue stretching (SD rats; [4]): stretching(3/6), Tremor(3/6); Onset time (Sprague-Dawley rats [2]; unit s): <0.5 min
CCOC(=O)C(=O)c1cncn1[C@H](C)c1ccccc1 [Compound D81] | 13 to 14 | 15 to 25 | 6/6 | 2/6 | <5 | >12.6 | 1.35 ± 0.12 | 4.87 ± 0.39 | 0 | 0 | 0 | 1 | 8 | 0 | 0 | 0 | 1 | 0.5 to 1 | >15.2 | <1 | Types and incidence of adverse reactions: the four limbs rigidity (SD rats; [4]): the four limbs rigidity(2/6)
COC(OC)(OC)C(=O)c1cc(F)nn1[C@H](C)c1ccccc1 [Compound D17] | 15 to 22 | 25 to 35 | 6/6 | 1/6 | <5 | >11.9 | 0.86 ± 0.23 | 5.48 ± 0.50 | 0 | 0 | 0 | 1 | 8 | 0 | 0 | 0 | 0 | 0.5 to 1 | >4.5 | <1 | 
COC(OC)(OC)C(=O)c1ccnn1[C@H](C)c1ccccc1 [Compound D1] | 18 to 24 | 35 to 45 | 6/6 | 2/6 | <5 | >11.2 | 1.18 ± 0.43 | 7.96 ± 2.14 | 0 | 0 | 0 | 0 | 8 | 0 | 0 | 1 | 0 | 0.5 to 1 | >8.4 | <1 | Types and incidence of adverse reactions: Tongue stretching (SD rats; [4]): Tongue stretching(2/6)
COC(OC)(OC(C)C)C(=O)c1ccnn1[C@H](C)c1ccccc1 [Compound D4] |  |  |  |  |  | >10.1 | 0.98 ± 0.35 | 7.28 ± 1.56 | 0 | 0 | 0 | 0 | 8 | 0 | 0 | 0 | 0 | 2 to 6 | >5.0 | <1 | 
C=CCOC(OC)(OC)C(=O)c1ccnn1[C@H](C)c1ccccc1 [Compound D7] |  |  |  |  |  | >3.2 | 0.55 ± 0.59 | 8.52 ± 2.29 | 0 | 0 | 0 | 1 | 8 | 0 | 0 | 1 | 1 | 0.5 to 1 | >5.4 | <1 | 
COC(OC)(OC)C(=O)c1c(F)cnn1[C@H](C)c1ccccc1 [Compound D29] | 12 to 20 | 20 to 25 | Red urine(6/6), Tongue |  | <5 | >3.6 | 1.24 ± 0.06 | 2.26 ± 0.59 | 0 | 0 | 0 | 3 | 8 | 0 | 0 | 0 | 4 | 0.04 to 0.5 | >4.1 |  | Types and incidence of adverse reactions: Tongue stretching (SD rats; [4]): stretching(4/6); Onset time (Sprague-Dawley rats [2]; unit s): <0.5 min
COC(OC)C(=O)c1cc(F)nn1[C@H](C)c1ccccc1 [Compound D25] | 16 to 24 | 30 to 40 | 6/6 | 2/6 | <5 | >8.4 | 1.52 ± 0.26 | 6.82 ± 0.27 | 0 | 0 | 0 | 1 | 8 | 0 | 0 | 0 | 2 | 0.5 to 1 | >10.2 | <1 | Types and incidence of adverse reactions: Hindlimb rigidity (SD rats; [4]): Hindlimb rigidity(1/6)
COC(OC)(OC)C(=O)c1c(F)ncn1[C@H](C)c1ccccc1 [Compound D93] |  |  |  |  |  | >1.8 | 2.50 ± 0.30 | 6.89 ± 0.80 | 0 | 0 | 0 | 0 | 8 | 0 | 8 | 1 | 0 | 0.04 to 0.5 | >25.1 |  | Onset time (Sprague-Dawley rats [2]; unit s): <0.5 min
C[C@H](c1ccccc1)n1cncc1C(=O)C(=O)OCC(C)(C)C [Compound D86] |  |  |  |  |  | >9.8 | 1.24 ± 0.12 | 7.88 ± 1.94 | 0 | 0 | 0 | 0 | 8 | 0 | 2 | 0 | 0 | 1 to 2 | >7.3 | <1 | 
COC(OC)C(=O)c1cncn1[C@H](C)c1ccccc1 [Compound D87] |  |  |  |  |  | >13.2 | 4.34 ± 0.54 | 8.26 ± 2.74 | 0 | 0 | 0 | 0 | 8 | 0 | 5 | 0 | 0 | 1 to 2 | >6.8 |  | Onset time (Sprague-Dawley rats [2]; unit s): <0.5 min

— patent US12570612B2, “Substituted nitrogen heterocyclic compound and anesthetic effect thereof” (priority 2019, dated 2026)
